Earlier results, collected in US11078216B2, “Bisaryl amides as NRF2 activators” (GLAXOSMITHKLINE INTELLECTUAL PROPERTY DEVELOPMENT LIMITED, priority 2016, dated 2021).

Assays:
[1] = tested on: COPD macrophages and alveolar macrophages from cigarette smoke-exposed mice; details: cited from earlier work
rats = details: cerebral ischemia-reperfusion model; cited from earlier work
mice = details: NRF2 wild-type vs KO mice after administration; cited from earlier work

| SMILES | expression of Macrophage Receptor with Collagenous structure (MARCO) ([1]; COPD macrophages and alveolar macrophages from cigarette smoke-exposed mice) | bacterial phagocytosis and bacterial clearance ([1]; Pseudomonas aeruginosa, non-typable Haemophilus influenzae, ex vivo and in vivo) | cortical damage (rats) | cortical glutathione levels (mice) |
| --- | --- | --- | --- | --- |
| C[S+]([O-])CCCCN=C=S (stereo not shown) [Sulforaphane] | increases | improving |  |  |
| CC(C)(C)c1cc(O)ccc1O [tBHQ, tert-butylhydroquinone] |  |  | reduced cortical damage | increased in NRF2 wild-type but not KO mice |
